Test results published in patent publication US9902736B2, “1-oxo/acylation-14-acylated oridonin derivative, preparation method therefor and application thereof” (HANGZHOU BENSHENG PHARMACEUTICAL CO., LTD., priority 2012, dated 2018).
In brackets after ≈: the same amount, converted by molar mass.

Key:
Hela = test: Solid tumor cell growth inhibition, MTT, 72 h; assay type: cell-based, human; settings: Homo sapiens, HeLa; 72 h, MTT
Outline: (§1)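 Human tumor cells at 6000 per well grew 24 hours in DMEM high glucose with 10% fetal bovine serum at 37° C, 5% CO2. Oridonin derivatives at varied concentrations were added for 72 hours, then viable cells were measured by MTT.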

MGC-803 = test: Solid tumor cell growth inhibition, MTT, 72 h; assay type: cell-based, human; settings: Homo sapiens, MGC-803; 72 h, MTT
Outline: as §1

Hep-2 = test: Solid tumor cell growth inhibition, MTT, 72 h; assay type: cell-based, human; settings: Homo sapiens, HEp-2; 72 h, MTT
Outline: as §1

CNE = test: Solid tumor cell growth inhibition, MTT, 72 h; assay type: cell-based, human; settings: Homo sapiens, CNE; 72 h, MTT
Outline: as §1

K562/ADR = test: Leukemia cell growth inhibition, MTT, 72 h; assay type: cell-based; settings: Homo sapiens
Outline: (§2)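 Each leukemia line (K562/ADR, H9, Jurkat, Kasumi-1) was seeded at 6000 cells/well and dosed the next day with oridonin derivatives at several concentrations. Plates were incubated 72 h at 37° C in 5% CO2, then viable cells quantified by MTT.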

Kasumi-1 = test: Leukemia cell growth inhibition, MTT, 72 h; assay type: cell-based; settings: Homo sapiens
Outline: as §2

H9 = test: Leukemia cell growth inhibition, MTT, 72 h; assay type: cell-based, human; settings: Homo sapiens, H9; 72 h, MTT
Outline: as §2

Jurkat = test: Leukemia cell growth inhibition, MTT, 72 h; assay type: cell-based, human; settings: Homo sapiens, Jurkat; 72 h, MTT
Outline: as §2

NB4 = test: Leukemia cell growth inhibition, MTT, 72 h; assay type: cell-based, human; settings: Homo sapiens, NB-4; 72 h, MTT
Outline: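 MTT read-out of viable cell concentration after 72 hours of exposure at 37° C under 5% CO2. Compounds were dosed at several concentrations one day after plating 6000 cells per well.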

Becap-37 = test: Solid tumor cell growth inhibition, MTT, 72 h; assay type: cell-based; settings: Homo sapiens
Outline: as §1

Hep G2 = test: Solid tumor cell growth inhibition, MTT, 72 h; assay type: cell-based; settings: Homo sapiens, HepG2
Outline: as §1

SK-OV-3 = test: Solid tumor cell growth inhibition, MTT, 72 h; assay type: cell-based; settings: Homo sapiens, SK-OV-3, 72 h, MTT
Outline: as §1

A549 = test: Solid tumor cell growth inhibition, MTT, 72 h; assay type: cell-based; settings: Homo sapiens
Outline: as §1

MG-63 = test: Solid tumor cell growth inhibition, MTT, 72 h; assay type: cell-based; settings: Homo sapiens
Outline: as §1

PC-3 = test: Solid tumor cell growth inhibition, MTT, 72 h; assay type: cell-based; settings: Homo sapiens
Outline: as §1

PANC-1 = test: Solid tumor cell growth inhibition, MTT, 72 h; assay type: cell-based; settings: Homo sapiens
Outline: as §1

CaEs-17 = test: Solid tumor cell growth inhibition, MTT, 72 h; assay type: cell-based; settings: Homo sapiens, CaEs17
Outline: as §1

U87-MG = test: Solid tumor cell growth inhibition, MTT, 72 h; assay type: cell-based; settings: Homo sapiens, U-87 MG
Outline: as §1

RKO = test: Solid tumor cell growth inhibition, MTT, 72 h; assay type: cell-based; settings: Homo sapiens
Outline: as §1

RPMI 8226 = test: Multiple myeloma cell growth inhibition, MTT, 72 h; assay type: cell-based; settings: Homo sapiens
Outline: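 Growth inhibition by MTT after 72 h drug exposure (37 °C, 5% CO2) over a concentration range of oridonin derivatives. RPMI 8226 cells plated at 6000 per well and dosed the following day.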

## C=C1C(=O)[C@]23[C@H](OC(=O)c4cccs4)[C@H]1CC[C@H]2[C@@]12CO[C@@]3(O)[C@@H](O)[C@@H]1C(C)(C)CCC2=O [BS-OR-007]
Hela
  IC50: 1.64 µg/mL (≈ 3.47 µM)
  IC90: 4.92 µg/mL (≈ 10.4 µM)
MGC-803
  IC50: 0.95 µg/mL (≈ 2.01 µM)
  IC90: 9.79 µg/mL (≈ 20.7 µM)
Hep-2
  IC50: 1.76 µg/mL (≈ 3.72 µM)
  IC90: 9.2 µg/mL (≈ 19.5 µM)
CNE
  IC50: 1.33 µg/mL (≈ 2.81 µM)
  IC90: 5.16 µg/mL (≈ 10.9 µM)
K562/ADR
  IC50: 0.47 µg/mL (≈ 0.995 µM)
  IC90: 1.86 µg/mL (≈ 3.94 µM)
Kasumi-1
  IC50: 0.71 µg/mL (≈ 1.5 µM)
  IC90: 1.76 µg/mL (≈ 3.72 µM)
H9
  IC50: 0.41 µg/mL (≈ 0.868 µM)
  IC90: 0.92 µg/mL (≈ 1.95 µM)
Jurkat
  IC50: 0.71 µg/mL (≈ 1.5 µM)
  IC90: 4.45 µg/mL (≈ 9.42 µM)
NB4
  IC50: 0.08 µg/mL (≈ 0.169 µM)
  IC90: 0.47 µg/mL (≈ 0.995 µM)
Becap-37
  IC50: 1.02 µg/mL (≈ 2.16 µM)
  IC90: 3.8 µg/mL (≈ 8.04 µM)
Hep G2
  IC50: 1.54 µg/mL (≈ 3.26 µM)
  IC90: 10.8 µg/mL (≈ 22.9 µM)
SK-OV-3; read-out: IC50 SK-OV-3
  IC50: 1.69 µg/mL (≈ 3.58 µM)
SK-OV-3; read-out: IC90 SK-OV-3
  IC90: 4.6 µg/mL (≈ 9.73 µM)
A549
  IC50: 2.13 µg/mL (≈ 4.51 µM)
  IC90: 5.34 µg/mL (≈ 11.3 µM)
MG-63
  IC50: 0.42 µg/mL (≈ 0.889 µM)
  IC90: 0.96 µg/mL (≈ 2.03 µM)
PC-3
  IC50: 1.69 µg/mL (≈ 3.58 µM)
  IC90: 4.6 µg/mL (≈ 9.73 µM)
PANC-1
  IC50: 1.63 µg/mL (≈ 3.45 µM)
  IC90: 8.55 µg/mL (≈ 18.1 µM)
CaEs-17
  IC50: 0.93 µg/mL (≈ 1.97 µM)
  IC90: 5.32 µg/mL (≈ 11.3 µM)
U87-MG
  IC50: 0.78 µg/mL (≈ 1.65 µM)
  IC90: 3.21 µg/mL (≈ 6.79 µM)
RKO
  IC50: 0.43 µg/mL (≈ 0.91 µM)
  IC90: 0.95 µg/mL (≈ 2.01 µM)
RPMI 8226
  IC50: 0.37 µg/mL (≈ 0.783 µM)
  IC90: 2.59 µg/mL (≈ 5.48 µM)
